From patent US20220330549A1, “USE OF N-BENZYLBENZAMIDE-BASED COMPOUND AS HERBICIDE” (Northwest A&F University, priority 2020, published 2022)

Assays:
Type in all cases: in vivo
Humulus scandens [1] = test: Herbicidal activity test for indoor post-emergence spraying on stems and leaves; parameters: key: grade level by weed remaining vs blank control, e.g. 5 = 10.1-15%; settings: 150 g a.i./ha, visual inspection 21 days after treatment
How it was run: (§1)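 Weeds were grown in a greenhouse from seed and treated by foliar spraying after emergence, per the NY/T 1155.4-2006 method. Visual grading at 21 days: each level reflects the share of weed remaining versus the untreated blank control area.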

Amaranthus retroflexus [2] = test: as above; parameters: key: grade level by weed remaining vs blank control, e.g. 5 = 10.1-15%; settings: 150 g a.i./ha, visual inspection 21 days after treatment
How it was run: as §1

Digitaria sanguinalis [3] = test: as above; parameters: key: grade level by weed remaining vs blank control, e.g. 5 = 10.1-15%; settings: 150 g a.i./ha, visual inspection 21 days after treatment
How it was run: as §1

Barnyard grass [4] = test: as above; parameters: key: grade level by weed remaining vs blank control, e.g. 5 = 10.1-15%; settings: 150 g a.i./ha, visual inspection 21 days after treatment
How it was run: as §1

Piemarker [5] = test: as above; parameters: key: grade level by weed remaining vs blank control, e.g. 5 = 10.1-15%; settings: 150 g a.i./ha, visual inspection 21 days after treatment
How it was run: as §1

green bristlegrass [6] = test: as above; parameters: key: grade level by weed remaining vs blank control, e.g. 5 = 10.1-15%; settings: 150 g a.i./ha, visual inspection 21 days after treatment
How it was run: as §1

Barnyard grass [7] = test: Herbicidal activity test for indoor pre-emergence soil treatment; parameters: key: level 1-9; higher = more weed remaining vs blank control; settings: 150 g a.i./ha, visual inspection 21 days after treatment
How it was run: (§2)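 Compounds were formulated as 10% emulsifiable concentrates and sprayed onto the soil 24 h after sowing, at 150 g(a.i.)/ha. Soil was sandy loam (≤2% organic matter), with seeds under 0.5–2.0 cm cover, per NY/T 1155.3-2006. Visual 1–9 ratings relative to blank control were made after 21 days.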

Piemarker [8] = test: as above; parameters: key: level 1-9; higher = more weed remaining vs blank control; settings: 150 g a.i./ha, visual inspection 21 days after treatment
How it was run: as §2

green bristlegrass [9] = test: as above; parameters: key: level 1-9; higher = more weed remaining vs blank control; settings: 150 g a.i./ha, visual inspection 21 days after treatment
How it was run: as §2

Portulaca oleracea = test: Field test for weed control in a corn field; settings: 150 g a.i./ha, after treatment
How it was run: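 Post-emergence weed control was evaluated in a corn field by the GB/T 17980.42-2000 method. Emulsifiable concentrates (10%) in water were applied as sprays at 150 g(a.i.)/ha at the 2-5 leaf corn stage, in four replicate 20 m^2 plots. A 25% mesotrione oil dispersion served as control agent. Effects were graded 1-9 relative to weed remaining in blank control areas.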

nutgrass flatsedge = test: Field test for weed control in a corn field; settings: 150 g a.i./ha, after treatment
How it was run: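 Herbicidal effect on nutgrass flatsedge was measured in a field planted with corn, using the GB/T 17980.42-2000 method. Emulsifiable concentrates (10%) in water were sprayed at 150 g(a.i.)/ha during the 2-leaf to 5-leaf corn stage, on 20 m^2 plots repeated 4 times. 25% mesotrione oil dispersion was the control agent. Activity was scored from 1 to 9 by weed remaining relative to blank control plots.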

Acalypha australis = test: Field test for weed control in a corn field; settings: 150 g a.i./ha, after treatment
How it was run: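 Herbicidal activity against weeds was assessed in corn plots by the GB/T 17980.42-2000 method. Corn at the 2–5 leaf stage received water sprays of 10% emulsifiable concentrates at 150 g(a.i.)/ha, four repeats per treatment over 20 m^2. A 25% mesotrione oil dispersion was the reference. Damage symptoms and severity were rated on levels 1-9 relative to weeds in the blank control area.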

Chenopodium album = test: Field test for weed control in a corn field; settings: 150 g a.i./ha, after treatment
How it was run: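 Field weed-control testing in corn, run per GB/T 17980.42-2000, scored Chenopodium album on a 1-9 level scale, where each level matches a percentage range of weed remaining relative to the blank control area. Sprays of 10% emulsifiable concentrates in water delivered 150 g(a.i.)/ha at the corn 2-leaf to 5-leaf stage on 20 m^2 plots, four replicates each. Mesotrione 25% oil dispersion served as reference.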

Amaranthus retroflexus [10] = test: Field test for weed control in a corn field; settings: 150 g a.i./ha, 30 days after treatment
How it was run: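 Post-emergence control of Amaranthus retroflexus was assessed in corn plots using the GB/T 17980.42-2000 method. Emulsifiable concentrates (10%) in water were applied by spraying at the 2- to 5-leaf crop stage on 20 m^2 plots, four replicates each, alongside a mesotrione 25% oil dispersion reference. Herbicidal activity was scored on 1-9 levels by weed amount relative to blank control areas.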

Digitaria sanguinalis [11] = test: Field test for weed control in a corn field; settings: 150 g a.i./ha, after treatment
How it was run: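 Field trial in a corn field following GB/T 17980.42-2000. Test compounds were formulated as 10% emulsifiable concentrates, diluted in water and sprayed post-emergence at 150 g(a.i.)/ha when corn had 2 to 5 leaves, with 4 replicates on 20 m^2 plots. Control of Digitaria sanguinalis was scored on a 1-9 scale based on weed damage relative to the untreated blank area.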

Solanum nigrum = test: Field test for weed control in a corn field; settings: 150 g a.i./ha, 30 days after treatment
How it was run: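 In a corn field trial based on GB/T 17980.42-2000, 10% emulsifiable concentrates diluted in water were sprayed at 150 g(a.i.)/ha at the 2 to 5 leaf stage of corn. Each treatment used 20 m^2 plots and was repeated 4 times, with 25% mesotrione oil dispersion as the reference agent. Solanum nigrum damage was scored on a 1-9 scale against blank control plots.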

Barnyard grass [12] = test: Field test for weed control in a corn field; settings: 150 g a.i./ha, 30 days after treatment
How it was run: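 Herbicidal activity against barnyard grass was assessed in corn field plots of 20 m^2, with four replicates per treatment. Compounds were applied as water-diluted 10% emulsifiable concentrates at 150 g(a.i.)/ha at the 2-5 leaf corn stage, with 25% mesotrione oil dispersion as the reference agent. Damage was scored on a 1-9 scale against untreated blank plots.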

Convolvulus arvensis = test: Field test for weed control in a corn field; settings: 150 g a.i./ha, after treatment
How it was run: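 Post-emergence herbicidal activity on Convolvulus arvensis was scored in a corn field on a 1-9 scale, based on symptoms and damage severity. Each level corresponds to the weed remaining as a percentage of the blank control area. Sprays of 10% emulsifiable concentrate at 150 g(a.i.)/ha went on at the corn 2–5 leaf stage, with four replicates of 20 m^2 per treatment.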

goosegrass = test: Field test for weed control in a corn field; settings: 150 g a.i./ha, after treatment
How it was run: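 In this field trial in corn, run per GB/T 17980.42-2000, test agents prepared as 10% emulsifiable concentrates were applied in water as sprays at 150 g(a.i.)/ha at the 2- to 5-leaf corn stage. Each treatment covered 20 m^2 and was repeated 4 times. Goosegrass control was scored 1-9 relative to weed remaining in blank control areas.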

green bristlegrass [13] = test: Field test for weed control in a corn field; settings: 150 g a.i./ha, after treatment
How it was run: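 Herbicidal activity against green bristlegrass was assessed in corn field plots of 20 m^2 per GB/T 17980.42-2000. Test agents, formulated as 10% emulsifiable concentrates, were applied in water at 150 g(a.i.)/ha at the corn 2 leaves to 5 leaves stage, repeated 4 times. A 25% mesotrione oil dispersion served as the control agent, and weed damage was rated on levels 1-9.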

Humulus scandens [14] = test: Herbicidal activity test for indoor pre-emergence soil treatment; settings: 150 g a.i./ha, visual inspection 21 days after treatment
How it was run: as §2

Gramineae = test: Post-emergence herbicidal activity test in a paddy field; parameters: key: level scale; higher level = more weed left vs blank control; settings: 150 g a.i./ha (penoxsulam control 250 g(a.i.)/h)
How it was run: (§3)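 Efficacy was visually estimated 15 and 30 days after spraying, grading weed coverage relative to an untreated neighbouring plot (level 2 = 0 to 2.5%, level 9 = 67.6 to 100%). Treatments were 150 g(a.i.)/ha from 10% emulsifiable concentrates applied at the 4-5 leaf rice stage, four repeats of 50 m^2 each.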

Broadleaf weed = test: as above; parameters: key: level scale; higher level = more weed left vs blank control; settings: 150 g a.i./ha (penoxsulam control 250 g(a.i.)/h)
How it was run: as §3

Cyperaceae = test: as above; parameters: key: level scale; higher level = more weed left vs blank control; settings: 150 g a.i./ha (penoxsulam control 250 g(a.i.)/h)
How it was run: as §3

Amaranthus retroflexus [15] = test: Herbicidal activity test for indoor pre-emergence soil treatment; parameters: key: 1-9 levels; higher = more weed remaining vs blank control; settings: 150 g a.i./ha, visual inspection 21 days after treatment
How it was run: as §2

Digitaria sanguinalis [16] = test: as above; parameters: key: 1-9 levels; higher = more weed remaining vs blank control; settings: 150 g a.i./ha, visual inspection 21 days after treatment
How it was run: as §2

SMILES | Herbicidal Activity Humulus scandens (Humulus scandens [1]) | Herbicidal Activity Amaranthus retroflexus (Amaranthus retroflexus [2]) | Herbicidal Activity Digitaria sanguinalis (Digitaria sanguinalis [3]) | Herbicidal Activity Barnyard grass (Barnyard grass [4]) | Herbicidal Activity Piemarker (Piemarker [5]) | Herbicidal Activity Green bristlegrass (green bristlegrass [6]) | Herbicidal Activity Barnyard grass (Barnyard grass [7]) | Herbicidal Activity Piemarker (Piemarker [8]) | Herbicidal Activity Green bristlegrass (green bristlegrass [9]) | Post-emergence weed control effect, Portulaca oleracea (Portulaca oleracea) | Post-emergence weed control effect, Nutgrass flatsedge (nutgrass flatsedge) | Post-emergence weed control effect, Acalypha australis (Acalypha australis) | Post-emergence weed control effect, Chenopodium album (Chenopodium album) | Post-emergence weed control effect, Amaranthus retroflexus (Amaranthus retroflexus [10]) | Post-emergence weed control effect, Digitaria sanguinalis (Digitaria sanguinalis [11]) | Post-emergence weed control effect, Solanum nigrum (Solanum nigrum) | Post-emergence weed control effect, Barnyard grass (Barnyard grass [12]) | Post-emergence weed control effect, Convolvulus arvensis (Convolvulus arvensis) | Post-emergence weed control effect, Goose grass (goosegrass) | Post-emergence weed control effect, Green bristlegrass (green bristlegrass [13]) | other results
COc1ccc(OC)c(C(=O)NCc2cccc(C)c2)c1 [Compound A35] | 1 | 1 | 1 | 1 | 1 | 1 | 1 | 1 | 1 | 1 | 2 (equivalent to 0 to 2.5% of the weed in the blank control area) | 2 (equivalent to 0 to 2.5% of the weed in the blank control area) | 1 | 1 | 2 (equivalent to 0 to 2.5% of the weed in the blank control area) | 2 (equivalent to 0 to 2.5% of the weed in the blank control area) | 1 | 2 (equivalent to 0 to 2.5% of the weed in the blank control area) | 2 (equivalent to 0 to 2.5% of the weed in the blank control area) | 2 (equivalent to 0 to 2.5% of the weed in the blank control area) | Herbicidal Activity Humulus scandens (Humulus scandens [14]): 2 (equivalent to 0 to 2.5% of the weed in the blank control area); Herbicidal activity 15 days after treatment Gramineae (Gramineae): 2 (equivalent to 0 to 2.5% of the weed in the blank control area); Herbicidal activity 30 days after treatment Gramineae (Gramineae): 1; Herbicidal activity 15 days after treatment Broadleaf weed (Broadleaf weed): 1; Herbicidal activity 30 days after treatment Broadleaf weed (Broadleaf weed): 2 (equivalent to 0 to 2.5% of the weed in the blank control area); Herbicidal activity 15 days after treatment Cyperaceae (Cyperaceae): 1; Herbicidal activity 30 days after treatment Cyperaceae (Cyperaceae): 2 (equivalent to 0 to 2.5% of the weed in the blank control area); Herbicidal Activity Amaranthus retroflexus (Amaranthus retroflexus [15]): 1; Herbicidal Activity Digitaria sanguinalis (Digitaria sanguinalis [16]): 2 (equivalent to 0 to 2.5% of the weed in the blank control area)
COc1ncccc1C(=O)NCc1cccc(C)c1 [Compound A85] | 1 | 1 | 1 | 1 | 1 | 1 | 1 | 1 | 1 | 1 | 2 (equivalent to 0 to 2.5% of the weed in the blank control area) | 1 | 1 | 1 | 2 (equivalent to 0 to 2.5% of the weed in the blank control area) | 2 (equivalent to 0 to 2.5% of the weed in the blank control area) | 1 | 1 | 2 (equivalent to 0 to 2.5% of the weed in the blank control area) | 1 | Herbicidal Activity Humulus scandens (Humulus scandens [14]): 3 (equivalent to 2.6 to 5% of the weed in the blank control area); Herbicidal activity 15 days after treatment Gramineae (Gramineae): 2 (equivalent to 0 to 2.5% of the weed in the blank control area); Herbicidal activity 30 days after treatment Gramineae (Gramineae): 1; Herbicidal activity 15 days after treatment Broadleaf weed (Broadleaf weed): 1; Herbicidal activity 30 days after treatment Broadleaf weed (Broadleaf weed): 1; Herbicidal activity 15 days after treatment Cyperaceae (Cyperaceae): 1; Herbicidal activity 30 days after treatment Cyperaceae (Cyperaceae): 1; Herbicidal Activity Amaranthus retroflexus (Amaranthus retroflexus [15]): 2 (equivalent to 0 to 2.5% of the weed in the blank control area); Herbicidal Activity Digitaria sanguinalis (Digitaria sanguinalis [16]): 1
